Experimental data reported in US9844536B2, “3-(1H-imidazo[4,5-C]pyridin-2-yl)-1H-pyrazolo[3,4-C]pyridine and therapeutic uses thereof” (Samumed, LLC, priority 2014, dated 2017).
pEC50, pIC50: −log10 of the molar value.

Legend:
[1] = test system: Wnt pathway (Sp5-Luc reporter, SW480 cells); assay: Sp5-Luc reporter gene screening assay for Wnt activity in SW480 colon carcinoma cells; format: cell-based; conditions: Homo sapiens
Source text: The screening assay for Wnt activity is described as follows. Reporter cell lines can be generated by stably transducing cancer cell lines (e.g., colon cancer) or primary cells (e.g., IEC-6 intestinal cells) with a lentiviral construct that includes a Wnt-responsive promoter driving expression of the firefly luciferase gene.
SW480 colon carcinoma cells were transduced with a lentiviral vector expressing luciferase with a human Sp5 promoter consisting of a sequence of eight TCF/LEF binding sites. SW480 cells stably expressing the Sp5-Luc reporter gene and a hygromycin resistance gene were selected by treatment with 150 μg/ml of hygromycin for 7 days. These stably transduced SW480 cells were expanded in cell culture and used for all further screening activities. For Sp5-Luc reporter gene assays, the cells were plated at 10,000 cells/well in 96-well plates with growth medium containing 10% fetal calf serum and incubated overnight at 37° C. and 5% CO2. Each compound was dissolved in DMSO as a 10 mM stock in standard j-vials and used to prepare compound source plates in dose-response format with 3-fold serial dilutions and a 10 mM top concentration. Compound transfer from serially diluted source plates to assay plates containing the cells was accomplished using a pintool (Multimek 96, Beckman equipped with V&P Scientific FP1S50H pins) based liquid handling protocol. This protocol used a slotted pin to transfer 50 nl of compound from a source plate well to an assay plate well containing 50 μl of cells in growth medium. […] Control wells received 50 nl of DMSO treatment for normalization and calculating IC50 values. The treated cells were incubated at 37° C. and 5% CO2 for an additional forty-two hours. Following incubation, the growth medium was removed and 50 μl of BrightGlo luminescence reagent (Promega) was added to each well of the 96-well assay plates. The plates were placed on an orbital shaker for 5 min and then luminescence was quantified on the Victor3 (Perkin Elmer) plate reader. Readings were normalized to DMSO only treated cells, and normalized activities were utilized for IC50 calculations using the dose-response log (inhibitor) vs. response-variable slope (four parameters) nonlinear regression feature available in GraphPad Prism 5.0 or 6.0.

[2] = test system: LL29 cells; assay: Inhibition of the fibrotic process (αSMA staining) in TGF-β1 treated primary human fibroblasts from IPF patients; format: cell-based; conditions: Fibroblast, 96 h, TGF-β1 20 ng/mL, 4 days, dose-response 10 μM to 1.87 nM, read-out: Inhibition of fibrosis EC50
Source text: The above synthesized compounds were screened using primary human fibroblasts (derived from IPF patients) treated with TGF-β1 to determine their ability to inhibit the fibrotic process.
Primary human fibroblasts derived from IPF patients (LL29 cells) [^1Xiaoqiu Liu, et. al., “Fibrotic Lung Fibroblasts Show Blunted Inhibition by cAMP Due to Deficient cAMP Response Element-Binding Protein Phosphorylation”, Journal of Pharmacology and Experimental Therapeutics (2005), 315(2), 678-687; ^2Watts, K. L., et. al., “RhoA signaling modulates cyclin D1 expression in human lung fibroblasts; implications for idiopathic pulmonary fibrosis”, Respiratory Research (2006), 7(1), 88] were obtained from American Type Culture Collection (ATCC) and expanded in F12 medium supplemented with 15% Fetal Bovine Serum and Penicillin/Streptomycin.
Each compound was dissolved in DMSO as a 10 mM stock and used to prepare compound source plates. Serial dilution (1:2, 11-point dose-response curves from 10 μM to 1.87 nM) and compound transfer was performed using the ECHO 550 (Labcyte, Sunnyvale, Calif.) into 384-well clear bottom assay plates (Greiner Bio-One) with appropriate DMSO backfill for a final DMSO concentration of 0.1%. LL29 cells were plated at 1,500 cells/well in 80 μl/well F12 medium supplemented with 1% Fetal Bovine Serum. One hour after addition of the cells, TGF-β1 (Peprotech; 20 ng/mL) was added to the plates to induce fibrosis (ref. 1 and 2 above). Wells treated with TGF-β1 and containing DMSO were used as controls. Cells were incubated at 37° C. and 5% CO2 for 4 days. Following incubation for 4 days, SYTOX green nucleic acid stain (Life Technologies [Thermo Fisher Scientific]) was added to the wells at a final concentration of 1 uM and incubated at room temperature for 30 min. Cells were then fixed using 4% formaldehyde (Electron Microscopy Sciences), washed 3 times with PBS followed by blocking and permeabilization using 3% Bovine Serum Albumin (BSA; Sigma) and 0.3% Triton X-100 (Sigma) in PBS. Cells were then stained with antibody specific to α-smooth muscle actin (αSMA; Abcam) (ref. 1 and 2 above) in 3% Bovine Serum Albumin (BSA; Sigma) and 0.3% Triton X-100 (Sigma) in PBS, and incubated overnight at 4° C. Cells were then washed 3 times with PBS, followed by incubation with Alexa Flor-647 conjugated secondary antibody (Life Technologies [Thermo Fisher Scientific]) and DAPI at room temperature for 1 hour. Cells were then washed 3 times with PBS and plates were sealed for imaging. αSMA staining was imaged by excitation at 630 nm and emission at 665 nm and quantified using the Compartmental Analysis program on the CellInsight CX5 (Thermo Scientific). Dead or apoptotic cells were excluded from analysis based on positive SYTOX green staining. % of total cells positive for αSMA were counted in each well and normalized to the average of 11 wells treated with TGF-31 on the same plate using Dotmatics' Studies Software. The normalized averages (fold change over untreated) of 3 replicate wells for each compound concentration were used to create dose-responses curves and EC50 values were calculated using non-linear regression curve fit in the Dotmatics' Studies Software. The EC50 values are reported.

Compound | pIC50 [1] | pEC50 [2]
CCNCc1cncc(-c2cc3c(-c4nc5c(-c6ccccn6)nccc5[nH]4)n[nH]c3cn2)c1 [Compound 136, N-((5-(3-(4-(Pyridin-2-yl)-1H-imidazo[4,5-c]pyridin-2-yl)-1H-pyrazolo[3,4-c]pyridin-5-yl)pyridin-3-yl)methyl)ethanamine] | 6.08 | ≥ 8.05
O=C(Nc1cncc(-c2cc3c(-c4nc5c(-c6ccccn6)nccc5[nH]4)n[nH]c3cn2)c1)C1CCC1 [Compound 150, N-(5-(3-(4-(Pyridin-2-yl)-1H-imidazo[4,5-c]pyridin-2-yl)-1H-pyrazolo[3,4-c]pyridin-5-yl)pyridin-3-yl)cyclobutanecarboxamide] | 7.15 | 5.98
c1ccc(-c2nccc3[nH]c(-c4n[nH]c5cnc(-c6cncc(CNCC7CCCC7)c6)cc45)nc23)nc1 [Compound 154, 1-Cyclopentyl-N-((5-(3-(4-(pyridin-2-yl)-1H-imidazo[4,5-c]pyridin-2-yl)-1H-pyrazolo[3,4-c]pyridin-5-yl)pyridin-3-yl)methyl)methanamine] | 6.66 | 6.85
CCC(=O)Nc1cncc(-c2cc3c(-c4nc5c(N6CCCCC6)nccc5[nH]4)n[nH]c3cn2)c1 [Compound 157, N-(5-(3-(4-(Piperidin-1-yl)-1H-imidazo[4,5-c]pyridin-2-yl)-1H-pyrazolo[3,4-c]pyridin-5-yl)pyridin-3-yl)propionamide] | 6.84 | 6.46
CN(C)c1cncc(-c2cc3c(-c4nc5c(N6CCCCC6)nccc5[nH]4)n[nH]c3cn2)c1 [Compound 163, N,N-Dimethyl-5-(3-(4-(piperidin-1-yl)-1H-imidazo[4,5-c]pyridin-2-yl)-1H-pyrazolo[3,4-c]pyridin-5-yl)pyridin-3-amine] | 6.51 | ≥ 8.05
CN(C)Cc1cncc(-c2cc3c(-c4nc5c(N6CCCCC6)nccc5[nH]4)n[nH]c3cn2)c1 [Compound 169, N,N-Dimethyl-1-(5-(3-(4-(piperidin-1-yl)-1H-imidazo[4,5-c]pyridin-2-yl)-1H-pyrazolo[3,4-c]pyridin-5-yl)pyridin-3-yl)methanamine] | < 5.00 | 5.51
O=C(Nc1cncc(-c2cc3c(-c4nc5c(N6CCCCC6)nccc5[nH]4)n[nH]c3cn2)c1)C1CC1 [Compound 175, N-(5-(3-(4-(Piperidin-1-yl)-1H-imidazo[4,5-c]pyridin-2-yl)-1H-pyrazolo[3,4-c]pyridin-5-yl)pyridin-3-yl)cyclopropanecarboxamide] | 6.20 | ≥ 8.05
CC(C)C(=O)Nc1cncc(-c2cc3c(-c4nc5c(N6CCN(C)CC6)nccc5[nH]4)n[nH]c3cn2)c1 [Compound 217] | 5.97 | ≤ 5.00
CN1CCN(c2nccc3[nH]c(-c4n[nH]c5cnc(-c6cncc(CN7CCCCC7)c6)cc45)nc23)CC1 [Compound 223, 3-(4-(4-Methylpiperazin-1-yl)-1H-imidazo[4,5-c]pyridin-2-yl)-5-(5-(piperidin-1-ylmethyl)pyridin-3-yl)-1H-pyrazolo[3,4-c]pyridine] | < 5.00 | ≤ 5.00
CN1CCN(c2nccc3[nH]c(-c4n[nH]c5cnc(-c6cncc(NC(=O)C7CCCC7)c6)cc45)nc23)CC1 [Compound 229, N-(5-(3-(4-(4-Methylpiperazin-1-yl)-1H-imidazo[4,5-c]pyridin-2-yl)-1H-pyrazolo[3,4-c]pyridin-5-yl)pyridin-3-yl)cyclopentanecarboxamide] | < 5.00 | ≤ 5.00
CN1CCN(c2nccc3[nH]c(-c4n[nH]c5cnc(-c6cncnc6)cc45)nc23)CC1 [Compound 234, 3-(4-(4-Methylpiperazin-1-yl)-1H-imidazo[4,5-c]pyridin-2-yl)-5-(pyrimidin-5-yl)-1H-pyrazolo[3,4-c]pyridine] | 6.13 | 5.86
c1cncc(-c2cc3c(-c4nc5cnccc5[nH]4)n[nH]c3cn2)c1 [Compound 238, 3-(1H-Imidazo[4,5-c]pyridin-2-yl)-5-(pyridin-3-yl)-1H-pyrazolo[3,4-c]pyridine] | 7.18 | ≤ 5.00
O=C(Cc1ccccc1)Nc1cncc(-c2cc3c(-c4nc5cnccc5[nH]4)n[nH]c3cn2)c1 [Compound 244, N-(5-(3-(1H-Imidazo[4,5-c]pyridin-2-yl)-1H-pyrazolo[3,4-c]pyridin-5-yl)pyridin-3-yl)-2-phenylacetamide] | 5.89 | ≤ 5.00
O=C(Nc1cncc(-c2cc3c(-c4nc5cnccc5[nH]4)n[nH]c3cn2)c1)C1CCCCC1 [Compound 256, N-(5-(3-(1H-Imidazo[4,5-c]pyridin-2-yl)-1H-pyrazolo[3,4-c]pyridin-5-yl)pyridin-3-yl)cyclohexanecarboxamide] | 6.27 | ≤ 5.00
CC(C)CC(=O)Nc1cncc(-c2cc3c(-c4nc5c(-c6ccsc6)nccc5[nH]4)n[nH]c3cn2)c1 [Compound 262, 3-Methyl-N-(5-(3-(4-(thiophen-3-yl)-1H-imidazo[4,5-c]pyridin-2-yl)-1H-pyrazolo[3,4-c]pyridin-5-yl)pyridin-3-yl)butanamide] | 6.86 | ≤ 5.00
Cc1ccncc1-c1cc2c(-c3nc4c(-c5ccsc5)nccc4[nH]3)n[nH]c2cn1 [Compound 265, 5-(4-Methylpyridin-3-yl)-3-(4-(thiophen-3-yl)-1H-imidazo[4,5-c]pyridin-2-yl)-1H-pyrazolo[3,4-c]pyridine] | 7.22 | 6.80
CC(C)(C)C(=O)Nc1cncc(-c2cc3c(-c4nc5c(-c6ccsc6)nccc5[nH]4)n[nH]c3cn2)c1 [Compound 268, N-(5-(3-(4-(Thiophen-3-yl)-1H-imidazo[4,5-c]pyridin-2-yl)-1H-pyrazolo[3,4-c]pyridin-5-yl)pyridin-3-yl)pivalamide] | 7.38 | ≤ 5.00
O=C(Nc1cncc(-c2cc3c(-c4nc5c(-c6ccsc6)nccc5[nH]4)n[nH]c3cn2)c1)c1ccccc1 [Compound 271, N-(5-(3-(4-(Thiophen-3-yl)-1H-imidazo[4,5-c]pyridin-2-yl)-1H-pyrazolo[3,4-c]pyridin-5-yl)pyridin-3-yl)benzamide] | 6.72 | ≥ 8.05
CCCC(=O)Nc1cncc(-c2cc3c(-c4nc5c(-c6ccsc6)nccc5[nH]4)n[nH]c3cn2)c1 [Compound 277, N-(5-(3-(4-(Thiophen-3-yl)-1H-imidazo[4,5-c]pyridin-2-yl)-1H-pyrazolo[3,4-c]pyridin-5-yl)pyridin-3-yl)butyramide] | 7.15 | ≥ 8.05
